From ChEMBL document CHEMBL5696442, “Discovery of type II inhibitors of TGFβ-activated kinase 1 (TAK1) and mitogen-activated protein kinase kinase kinase kinase 2 (MAP4K2)” (J Med Chem, 2015)

Experiments:
[1] = target: Protein kinase C alpha type (Homo sapiens) (UniProt P17252); assay: Inhibition of PKCa Lys2 labeling site in human Huh-7 cells at 1 uM by KiNativ Profiling analysis relative to control; format: cell-based
[2] = target: Serine/threonine-protein kinase Nek7 (Homo sapiens) (UniProt Q8TDX7); assay: Inhibition of NEK7 Lys2 labeling site harbouring VMHRDIKPANVFITATGVVK in human Huh-7 cell lysate at 1 uM by KiNativ Profiling analysis relative to control; format: subcellular
Serine/threonine-protein kinase Nek7 (Homo sapiens), sequence (Q8TDX7 whole entry, looked up): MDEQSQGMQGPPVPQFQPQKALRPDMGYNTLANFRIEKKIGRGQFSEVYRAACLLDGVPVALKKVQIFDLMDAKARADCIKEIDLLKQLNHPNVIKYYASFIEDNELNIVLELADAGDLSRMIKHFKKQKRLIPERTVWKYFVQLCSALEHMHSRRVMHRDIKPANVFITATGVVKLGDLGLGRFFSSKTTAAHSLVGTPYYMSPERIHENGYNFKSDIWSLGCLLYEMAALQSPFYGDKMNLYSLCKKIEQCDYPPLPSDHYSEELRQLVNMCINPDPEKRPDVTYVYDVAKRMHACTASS

[3] = Inhibition of KHS1 Lys2 labeling site harbouring DIKGANILLTDHGDVK in human Huh-7 cells at 1 uM by KiNativ Profiling analysis relative to control; conditions: condition cancer
[4] = target: Calcium/calmodulin-dependent protein kinase type II subunit gamma (Homo sapiens) (UniProt Q13555); assay: Inhibition of CaMK2g Lys1 labeling site harbouring KTSTQEYAAKIINTK in human Huh-7 cell lysate at 1 uM by KiNativ Profiling analysis relative to control; format: subcellular
Calcium/calmodulin-dependent protein kinase type II subunit gamma (Homo sapiens), sequence (Q13555 whole entry): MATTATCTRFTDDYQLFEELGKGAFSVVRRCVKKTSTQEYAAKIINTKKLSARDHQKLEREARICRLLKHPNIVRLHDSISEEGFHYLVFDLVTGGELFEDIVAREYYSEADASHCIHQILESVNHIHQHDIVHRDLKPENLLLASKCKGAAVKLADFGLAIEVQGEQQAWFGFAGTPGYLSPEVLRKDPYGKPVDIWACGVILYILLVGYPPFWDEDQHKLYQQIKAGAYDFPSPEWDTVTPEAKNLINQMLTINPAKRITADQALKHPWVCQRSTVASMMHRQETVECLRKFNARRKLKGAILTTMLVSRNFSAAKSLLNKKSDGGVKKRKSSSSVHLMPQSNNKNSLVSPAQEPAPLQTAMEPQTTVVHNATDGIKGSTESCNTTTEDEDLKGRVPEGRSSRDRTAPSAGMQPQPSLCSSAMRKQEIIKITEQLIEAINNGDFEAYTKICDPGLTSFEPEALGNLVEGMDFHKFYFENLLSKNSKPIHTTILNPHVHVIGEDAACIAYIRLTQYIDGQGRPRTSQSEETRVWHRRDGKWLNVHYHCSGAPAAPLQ

[5] = target: Cyclin-dependent kinase 17 (Homo sapiens) (UniProt Q00537); assay: Inhibition of PCTAIRE2 Lys1 labeling site in human Huh-7 cells at 1 uM by KiNativ Profiling analysis relative to control; format: cell-based
Cyclin-dependent kinase 17 (Homo sapiens), sequence (Q00537 whole entry, looked up): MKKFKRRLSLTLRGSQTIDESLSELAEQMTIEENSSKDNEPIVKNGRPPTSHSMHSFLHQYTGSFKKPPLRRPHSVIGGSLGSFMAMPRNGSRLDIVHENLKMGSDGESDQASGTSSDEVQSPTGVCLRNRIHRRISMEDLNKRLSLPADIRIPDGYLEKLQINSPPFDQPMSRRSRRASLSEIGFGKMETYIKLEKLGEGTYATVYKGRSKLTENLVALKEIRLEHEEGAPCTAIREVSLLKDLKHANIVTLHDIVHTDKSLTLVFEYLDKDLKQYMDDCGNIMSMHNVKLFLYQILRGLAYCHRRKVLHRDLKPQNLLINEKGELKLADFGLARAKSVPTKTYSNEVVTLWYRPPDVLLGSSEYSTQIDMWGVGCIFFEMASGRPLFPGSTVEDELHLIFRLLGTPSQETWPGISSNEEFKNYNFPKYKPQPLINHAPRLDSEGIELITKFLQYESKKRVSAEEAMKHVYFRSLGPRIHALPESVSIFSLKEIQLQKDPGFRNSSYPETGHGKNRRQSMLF

[6] = target: Cyclin-dependent kinase 2 (Homo sapiens) (UniProt P24941); assay: Inhibition of CDK2 Lys2 labeling site harbouring VLHRDLKPQNLLINTEGAIK in human Huh-7 cells at 1 uM by KiNativ Profiling analysis relative to control; format: cell-based
[7] = target: Serine/threonine-protein kinase 24 (Homo sapiens) (UniProt Q9Y6E0); assay: Inhibition of MST3 Lys2 labeling site harbouring DIKAANVLLSEHGEVK in human Huh-7 cells at 1 uM by KiNativ Profiling analysis relative to control; format: cell-based
Serine/threonine-protein kinase 24 (Homo sapiens), sequence (Q9Y6E0 whole entry, looked up): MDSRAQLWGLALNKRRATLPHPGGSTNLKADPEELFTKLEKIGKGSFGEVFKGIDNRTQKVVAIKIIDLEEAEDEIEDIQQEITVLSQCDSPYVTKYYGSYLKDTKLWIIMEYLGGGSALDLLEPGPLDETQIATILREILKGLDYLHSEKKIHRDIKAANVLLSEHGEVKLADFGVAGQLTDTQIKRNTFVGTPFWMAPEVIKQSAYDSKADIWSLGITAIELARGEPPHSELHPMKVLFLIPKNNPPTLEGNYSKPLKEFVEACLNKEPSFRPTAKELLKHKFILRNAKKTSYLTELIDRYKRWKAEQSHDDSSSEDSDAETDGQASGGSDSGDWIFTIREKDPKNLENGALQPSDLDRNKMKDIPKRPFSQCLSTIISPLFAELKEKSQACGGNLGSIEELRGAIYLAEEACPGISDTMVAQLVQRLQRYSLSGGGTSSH

[8] = Inhibition of KHS1 Lys1 labeling site in human Huh-7 cell lysate at 1 uM by KiNativ Profiling analysis relative to control; conditions: condition cancer
[9] = target: Tyrosine-protein kinase ABL1 (Homo sapiens, UniProt P00519); assay: Inhibition of ABL Lys1 labeling site in human A-375 cells at 0.05 uM by KiNativ Profiling analysis relative to control; format: cell-based
Tyrosine-protein kinase ABL1, sequence (P00519 whole entry): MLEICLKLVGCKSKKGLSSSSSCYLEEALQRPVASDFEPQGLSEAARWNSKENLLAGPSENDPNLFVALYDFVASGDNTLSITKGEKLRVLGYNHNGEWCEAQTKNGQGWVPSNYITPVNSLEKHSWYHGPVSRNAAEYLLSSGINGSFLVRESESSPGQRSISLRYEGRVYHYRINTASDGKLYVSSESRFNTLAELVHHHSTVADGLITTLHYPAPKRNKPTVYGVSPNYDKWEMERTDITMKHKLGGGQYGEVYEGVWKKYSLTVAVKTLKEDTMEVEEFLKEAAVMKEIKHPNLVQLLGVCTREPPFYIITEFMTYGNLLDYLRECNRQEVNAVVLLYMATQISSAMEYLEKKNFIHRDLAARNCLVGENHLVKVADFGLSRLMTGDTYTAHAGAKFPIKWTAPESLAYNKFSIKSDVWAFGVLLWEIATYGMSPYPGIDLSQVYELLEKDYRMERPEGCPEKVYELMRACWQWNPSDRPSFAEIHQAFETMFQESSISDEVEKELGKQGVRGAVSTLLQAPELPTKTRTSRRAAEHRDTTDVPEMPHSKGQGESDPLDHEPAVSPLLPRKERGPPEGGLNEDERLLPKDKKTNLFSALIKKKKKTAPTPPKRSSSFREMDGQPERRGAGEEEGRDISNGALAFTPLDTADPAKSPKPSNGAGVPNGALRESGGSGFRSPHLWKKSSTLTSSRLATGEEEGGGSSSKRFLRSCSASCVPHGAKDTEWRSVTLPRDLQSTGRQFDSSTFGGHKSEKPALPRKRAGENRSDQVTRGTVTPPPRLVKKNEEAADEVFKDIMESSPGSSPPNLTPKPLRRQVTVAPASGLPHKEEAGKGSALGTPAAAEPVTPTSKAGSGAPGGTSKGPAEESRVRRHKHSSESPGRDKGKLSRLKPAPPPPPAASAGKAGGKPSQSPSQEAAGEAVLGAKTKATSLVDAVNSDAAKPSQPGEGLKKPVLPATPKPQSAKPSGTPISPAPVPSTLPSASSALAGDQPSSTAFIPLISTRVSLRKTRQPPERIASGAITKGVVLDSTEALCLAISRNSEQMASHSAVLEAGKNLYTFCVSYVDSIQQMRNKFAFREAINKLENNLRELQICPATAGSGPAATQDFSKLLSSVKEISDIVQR

[10] = target: Calcium/calmodulin-dependent protein kinase type II subunit gamma (Homo sapiens) (UniProt Q13555); assay: Inhibition of CAMK2g K1 labeling site harbouring KTSTQEYAAKIINTK in human Huh-7 cells at 1 uM by KiNativ Profiling analysis relative to control; format: cell-based
[11] = target: T1, Mitogen-activated protein kinase kinase kinase 5 (Homo sapiens) (UniProt Q99683); assay: Inhibition of MAP3K5 Lys1 labeling site harbouring IAIKEIPERDSR in human A-375 cells at 5 uM by KiNativ Profiling analysis relative to control; format: cell-based
T1 sequence (whole entry): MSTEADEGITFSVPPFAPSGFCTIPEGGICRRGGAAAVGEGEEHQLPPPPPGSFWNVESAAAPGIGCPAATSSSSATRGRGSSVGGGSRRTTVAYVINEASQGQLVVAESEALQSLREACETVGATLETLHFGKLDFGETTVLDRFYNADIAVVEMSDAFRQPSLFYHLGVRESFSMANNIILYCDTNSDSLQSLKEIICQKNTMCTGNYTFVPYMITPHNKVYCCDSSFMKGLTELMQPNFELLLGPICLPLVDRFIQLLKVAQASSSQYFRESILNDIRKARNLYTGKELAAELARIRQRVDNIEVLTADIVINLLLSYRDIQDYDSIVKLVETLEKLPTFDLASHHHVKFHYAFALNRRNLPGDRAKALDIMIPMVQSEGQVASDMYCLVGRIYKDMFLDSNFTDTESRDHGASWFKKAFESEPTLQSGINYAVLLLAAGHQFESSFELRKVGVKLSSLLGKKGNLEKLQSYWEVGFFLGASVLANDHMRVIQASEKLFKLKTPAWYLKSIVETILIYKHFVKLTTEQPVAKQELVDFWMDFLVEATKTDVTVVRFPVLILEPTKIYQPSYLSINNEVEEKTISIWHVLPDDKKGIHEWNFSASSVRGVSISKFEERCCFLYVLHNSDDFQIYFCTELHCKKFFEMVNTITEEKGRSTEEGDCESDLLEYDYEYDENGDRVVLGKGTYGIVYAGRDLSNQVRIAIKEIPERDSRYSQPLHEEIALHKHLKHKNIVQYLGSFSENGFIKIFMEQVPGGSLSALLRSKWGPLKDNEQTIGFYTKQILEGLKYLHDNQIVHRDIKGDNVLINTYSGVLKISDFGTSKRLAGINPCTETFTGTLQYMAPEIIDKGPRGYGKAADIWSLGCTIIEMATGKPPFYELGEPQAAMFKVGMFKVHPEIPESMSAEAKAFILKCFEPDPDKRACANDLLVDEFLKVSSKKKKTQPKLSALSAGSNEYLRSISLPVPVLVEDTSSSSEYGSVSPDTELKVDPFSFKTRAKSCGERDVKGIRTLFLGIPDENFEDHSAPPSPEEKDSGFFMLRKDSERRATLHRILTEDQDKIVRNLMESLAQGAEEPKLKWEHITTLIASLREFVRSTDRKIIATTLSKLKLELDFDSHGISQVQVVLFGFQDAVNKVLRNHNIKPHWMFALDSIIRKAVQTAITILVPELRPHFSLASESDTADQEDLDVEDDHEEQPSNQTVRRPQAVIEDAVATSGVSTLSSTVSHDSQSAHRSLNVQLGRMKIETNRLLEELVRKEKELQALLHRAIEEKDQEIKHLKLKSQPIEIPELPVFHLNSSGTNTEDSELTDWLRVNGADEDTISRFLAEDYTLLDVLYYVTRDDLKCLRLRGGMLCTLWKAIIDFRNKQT

[12] = system: Serine/threonine-protein kinase B-raf (Homo sapiens), P15056 [V600E]; assay: Inhibition of BRAF V600E mutant (unknown origin) at 1 uM by Ambit Kinomescan binding assay relative to control
Serine/threonine-protein kinase B-raf (Homo sapiens), P15056 [V600E], sequence (P15056 whole entry V600E): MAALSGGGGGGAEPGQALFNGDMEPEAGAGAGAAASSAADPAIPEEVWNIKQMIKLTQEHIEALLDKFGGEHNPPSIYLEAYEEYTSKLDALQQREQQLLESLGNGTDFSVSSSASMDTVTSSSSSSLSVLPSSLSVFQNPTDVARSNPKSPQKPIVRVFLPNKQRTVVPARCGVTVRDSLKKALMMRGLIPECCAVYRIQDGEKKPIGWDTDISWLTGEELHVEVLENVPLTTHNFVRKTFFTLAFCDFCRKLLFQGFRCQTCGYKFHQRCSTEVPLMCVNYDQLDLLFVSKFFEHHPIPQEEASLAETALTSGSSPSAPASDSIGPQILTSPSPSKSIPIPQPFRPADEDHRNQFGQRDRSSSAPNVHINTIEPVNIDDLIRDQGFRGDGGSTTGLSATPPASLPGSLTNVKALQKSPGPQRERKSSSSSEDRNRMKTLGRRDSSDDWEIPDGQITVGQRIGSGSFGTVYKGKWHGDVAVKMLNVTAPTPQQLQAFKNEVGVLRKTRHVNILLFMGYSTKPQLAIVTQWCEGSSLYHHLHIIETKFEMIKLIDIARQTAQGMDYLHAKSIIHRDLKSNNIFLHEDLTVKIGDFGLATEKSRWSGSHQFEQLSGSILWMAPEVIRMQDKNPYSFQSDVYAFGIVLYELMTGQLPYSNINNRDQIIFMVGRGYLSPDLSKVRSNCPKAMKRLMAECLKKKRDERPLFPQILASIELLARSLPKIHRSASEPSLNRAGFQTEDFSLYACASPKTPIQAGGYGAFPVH

[13] = target: Dual specificity mitogen-activated protein kinase kinase 1 (Homo sapiens) (UniProt Q02750); assay: Inhibition of MAP2K1 Lys2 labeling site harbouring IMHRDVKPSNILVNSR in human A-375 cells at 5 uM by KiNativ Profiling analysis relative to control; format: cell-based
Dual specificity mitogen-activated protein kinase kinase 1 (Homo sapiens), sequence (Q02750 whole entry): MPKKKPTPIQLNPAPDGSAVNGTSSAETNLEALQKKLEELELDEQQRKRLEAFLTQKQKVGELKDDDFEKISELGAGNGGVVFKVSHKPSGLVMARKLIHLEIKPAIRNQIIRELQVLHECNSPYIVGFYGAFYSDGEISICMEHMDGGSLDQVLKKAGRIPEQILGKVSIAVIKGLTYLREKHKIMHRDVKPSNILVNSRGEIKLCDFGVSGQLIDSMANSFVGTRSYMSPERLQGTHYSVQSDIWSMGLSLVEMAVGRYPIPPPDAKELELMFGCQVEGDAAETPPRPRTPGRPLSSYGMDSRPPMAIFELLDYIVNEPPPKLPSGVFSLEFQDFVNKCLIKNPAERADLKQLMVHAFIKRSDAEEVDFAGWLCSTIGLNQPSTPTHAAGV

**Q.** What does the source list for `CNc1cc(Oc2cc(C(=O)Nc3cc(N4CCN(C)CC4)cc(C(F)(F)F)c3)ccc2C)ncn1`?
**A.** inhibition [1]: 64.8%; inhibition [2]: 19.4%; inhibition at 1 µM [3]: -57.8%; inhibition [4]: 6.9%; inhibition [5]: 12%; inhibition [6]: 29.3%; inhibition [7]: 4.3%; inhibition at 1 µM [8]: -10.2%

**Q.** What does the source list for `CCN1CCN(Cc2ccc(NC(=O)c3ccc(C)c(Oc4ccnc5[nH]ccc45)c3)cc2C(F)(F)F)CC1`?
**A.** inhibition [9]: 84.8%; inhibition [10]: 1.3%; inhibition [11]: -3.2%

**Q.** Which results are given for `CCN1CCN(Cc2ccc(NC(=O)c3ccc(C)c(/C=C/c4cnc5[nH]ccc5c4OC)c3)cc2C(F)(F)F)CC1`?
**A.** inhibition [12]: 7.4%; inhibition [13]: 34.7%
